From paper PMC5992141, “Discovery of pancreastatin inhibitor PSTi8 for the treatment of insulin resistance and diabetes: studies in rodent models of diabetes mellitus” (Scientific Reports, 2018)
Residues, ends and D or L forms follow the SMILES beside them.

Tests used:
[1] = tested on: HFrD-fed STZ induced IR mice; test: i.p. insulin tolerance test (ITT), HFrD-fed mice; type: in vivo; settings: 6 h fasted, mean ± s.e.m., n = 6
Experimental: (§1) All animal experiments were performed according to protocols approved by Institutional Animal Ethics Committee (IAEC approval no. IAEC/2012/31-A), CSIR-Central Drug Research Institute (CSIR-CDRI, India). Male C57BL/6 mice (8–10 weeks, 15–20 g) and male db/db mice (10–12 weeks, 45–50 g) were obtained from Laboratory of Animal Division, CSIR-CDRI. […] After successful of model development diabetic mice divided in two groups, vehicle control group receive saline and treated group receive PSTi8. After acute (5 mg/kg) and chronic (2 mg/kg) treatment of PSTi8 for 10 days, mice were fasted for 6 hr before experiments and then sacrificed to collect plasma and tissues, which were snap frozen in liquid nitrogen.
(§2) i.p GTT, i.p ITT and i.p PTT were carried out in 6 hr fasted mice. The blood glucose level was measured from tail tip using Contour TS blood glucose meter. The AUC is calculated using GraphPad Prism 5.0 software[4],[13].

[2] = tested on: HFrD-fed STZ induced IR mice; test: i.p. glucose tolerance test (GTT), HFrD-fed mice; type: in vivo; settings: 6 h fasted, mean ± s.e.m., n = 6
Experimental: as §1, §2

GRP78 receptor [3] = biological target: T1, GRP78 receptor (Homo sapiens, UniProt P11021); test: Competitive binding with sulphorhodamine labelled PST and PSTi8 in HepG2 cells; parameters: endogenous in cells; host or cells: HepG2
T1 sequence (P11021 19-654): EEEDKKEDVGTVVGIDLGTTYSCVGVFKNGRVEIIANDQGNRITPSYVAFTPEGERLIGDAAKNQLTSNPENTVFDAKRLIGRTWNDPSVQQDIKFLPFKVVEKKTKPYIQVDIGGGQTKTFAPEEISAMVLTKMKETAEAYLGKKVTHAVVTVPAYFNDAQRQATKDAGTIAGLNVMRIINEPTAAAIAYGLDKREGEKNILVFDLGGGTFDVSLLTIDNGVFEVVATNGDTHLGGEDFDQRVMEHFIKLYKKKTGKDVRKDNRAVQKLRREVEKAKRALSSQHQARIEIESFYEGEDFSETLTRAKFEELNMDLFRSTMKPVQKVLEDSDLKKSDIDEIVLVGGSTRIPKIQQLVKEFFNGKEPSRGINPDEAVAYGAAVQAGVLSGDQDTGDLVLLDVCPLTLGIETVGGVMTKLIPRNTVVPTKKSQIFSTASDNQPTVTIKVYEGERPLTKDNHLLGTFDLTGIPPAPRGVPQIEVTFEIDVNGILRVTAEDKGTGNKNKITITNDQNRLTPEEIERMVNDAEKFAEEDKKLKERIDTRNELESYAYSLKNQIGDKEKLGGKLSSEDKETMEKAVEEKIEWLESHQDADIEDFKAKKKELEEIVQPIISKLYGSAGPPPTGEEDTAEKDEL
Experimental: Sulphorhodamine B labelled PST and PSTi8 were synthesized and purified from Genpro Biotech, India. In HepG2 cells, the competitive binding assay of PST and PSTi8 were performed and the labelled PST and/or PSTi8 concentrations were measured at 568 nm and 584 nm, respectively.

C57Bl/6 mice = test: Glucose reduction experiment, normoglycemic mice; type: in vivo; settings: control C57Bl/6 mice (normoglycemic), acute i.p. 5 mg/kg
Experimental: as §1

[4] = In-vivo pharmacokinetic study in db/db mice; settings: i.p. 5 mg/kg, SPE, LC-MS/MS
Experimental: PSTi8 (5 mg/kg) was administered (i.p) in db/db mice for PK study. After dosing, blood samples were collected at different time points. Plasma samples (100 µL) were processed using the solid phase extraction (SPE). The 100 µL of eluted SPE samples were injected into the liquid chromatography tandem mass spectrometry (LC-MS/MS) (API 4000QTRAP, ABSciex, Canada) for analysis. The PK profile and parameters were evaluated by non-compartmental model approach using Pheonix 6.3 WinNonlin(Pharsight Corporation, USA).

GRP78 receptor [5] = biological target: T1, GRP78 receptor; test: GRP78 ATPase enzymatic activity (Malachite green-phosphate assay); type: biochemical; parameters: purchased Abcam Inc., Cambridge, MA ab78432; settings: PSTi8 5 µM with PST 1 µM, GRP78 0.25 µM, 100 µM ATP, 37 °C, 30 min
Experimental: To determine that PSTi8 inhibit PST inhibitory action on GRP78 ATPase activity, we perform Concentration-dependent spectrophotometric assays using recombinant human GRP78 protein (catalog # ab78432, Abcam Inc., Cambridge, MA). PSTi8 was co-incubated with PST (1 µM) at different doses (1, 2.5 and 5 µM) in 50 µl of assay buffer (20 mM Tris, pH 7.5, 50 mM KCl, 1.5 mM MgCl2) containing GRP78 protein (0.25 µM). The reaction was started by adding 100 µM ATP and incubated at 37 °C for 30 min. On ATP hydrolysis free phosphate (Pi) was measured by a Malachite green-phosphate assay (catalog #10009325, Cayman)[11].

Compound: CN(C)C(=N)N=C(N)N [metformin]
- AUC, ipITT ([1]; acute metformin p.o. 300 mg/kg, 30 min before insulin 0.6 IU/kg): 19828.5 ± 1004.11 mg·min/dL
- AUC, ipITT ([1]; chronic metformin p.o. 300 mg/kg for 7 days, insulin 0.6 IU/kg): 16417.5 ± 1222.35 mg·min/dL
- AUC, i.p GTT ([2]; acute metformin p.o. 300 mg/kg, 30 min before glucose 1 g/kg): 44068.5 ± 3070.1 mg·min/dL
- AUC, i.p GTT ([2]; chronic metformin p.o. 300 mg/kg for 7 days, glucose 1 g/kg): 36913.13 ± 891.89 mg·min/dL

Compound: CSCC[C@H](NC(=O)[C@H](CCC(=O)O)NC(=O)[C@H](CCC(=O)O)NC(=O)[C@H](CCC(=O)O)NC(=O)[C@H](CCC(=O)O)NC(=O)[C@H](CCC(=O)O)NC(=O)[C@H](CCCCN)NC(=O)[C@H](CCC(N)=O)NC(=O)[C@H](CCC(N)=O)NC(=O)[C@H](CO)NC(=O)[C@H](Cc1c[nH]cn1)NC(=O)[C@H](CCC(=O)O)NC(=O)[C@H](CCC(N)=O)NC(=O)[C@H](CCC(=O)O)NC(=O)CNC(=O)[C@H](CCCCN)NC(=O)CNC(=O)[C@H](CCC(=O)O)NC(=O)[C@@H]1CCCN1)C(=O)N[C@@H](C)C(=O)N[C@H](C(=O)N[C@H](C(=O)N1CCC[C@H]1C(=O)N[C@@H](CCC(N)=O)C(=O)NCC(=O)N[C@@H](CC(C)C)C(=O)N[C@@H](Cc1ccccc1)C(=O)N[C@@H](CCCNC(=N)N)C(=O)NCC(N)=O)C(C)C)C(C)C [PST, Pancreastatin] (H-PEGKGEQEHSQQKEEEEEMAVVPQGLFRG-NH2)
- inhibition at 0.1 µM (GRP78 receptor [3]; PST 100 nM against sulphorhodamine labelled PSTi8 150 nM): > 50%

Compound: CSCC[C@H](NC(=O)[C@H](CCC(=O)O)NC(=O)[C@H](CCC(=O)O)NC(=O)[C@H](CCC(=O)O)NC(=O)[C@H](CCC(=O)O)NC(=O)[C@H](CCC(=O)O)NC(=O)[C@H](CCCCN)NC(=O)[C@H](CCC(N)=O)NC(=O)[C@H](CCC(N)=O)NC(=O)[C@H](CO)NC(=O)[C@H](Cc1c[nH]cn1)NC(=O)[C@H](CCC(=O)O)NC(=O)[C@H](CCC(N)=O)NC(=O)[C@H](CCC(=O)O)NC(=O)CNC(=O)[C@H](CCCCN)NC(=O)CNC(=O)[C@H](CCC(=O)O)NC(=O)[C@@H]1CCCN1)C(=O)N[C@@H](C)C(=O)N[C@H](C(N)=O)C(C)C [PSTi8] (H-PEGKGEQEHSQQKEEEEEMAV-NH2)
- effect on blood glucose level (C57Bl/6 mice): did not show any decrease in glucose level
- time up to which plasma concentration was observed [4]: ≤ 6 h
- enhancement of ATPase activity of GRP78 inhibited by PST (GRP78 receptor [5]): ~50%
- inhibition at 0.3 µM (GRP78 receptor [3]; PSTi8 300 nM against sulphorhodamine labelled PST 25 nM): > 50%
